Results: patent US9220719B2, “Single dose oral formulations and methods for treatment of cats with ectoparasiticidal spinosad” (priority 2012, dated 2015)

Key:
[1] = test system: adult cat flea (Ctenocephalides felis); assay: Dose determination: knockdown and residual effectiveness of spinosad (gelatin capsule) against adult fleas on experimentally infested cats (Example 1); type: in vivo; details: for Geometric Mean Counts of Adult C. felis / Geometric Mean Percent Reduction of Adult C. felis Compared to Untreated Control Group: fed
Text: The “knockdown” and “residual” effectiveness of spinosad can be evaluated following oral administration at four different single dosages, compared to a non-treated control group, against the adult cat flea (Ctenocephalides felis) on experimentally infested cats. A minimum effective oral dose in cats can be evaluated based on knockdown efficacy (i.e., on Day 1 following administration) and on residual efficacy (i.e., on Day 30 following administration) against the cat flea (Ctenocephalides felis).
Forty cats can be evaluated in a randomized complete block design with cat gender and pretreatment live flea counts used as blocking factors. Five treatment groups of four female and four male cats per group can be orally dosed on Test Day 0: Group (1) can be administered 0 mg/kg vehicle control (empty gelatin capsule); Group (2) can be administered spinosad in a gelatin capsule at a dose of 35 mg/kg body weight; Group (3) can be administered spinosad in a gelatin capsule at a dose of 40 mg/kg body weight; Group (4) can be administered spinosad in a gelatin capsule at a dose of 45 mg/kg body weight; and Group (5) can be administered spinosad in a gelatin capsule at a dose of 50 mg/kg body weight. All cats can consume canned cat food just prior to dosing to ensure they were in a fed state. Each cat can be infested with approximately 100 newly emerged, unfed adult fleas (C. felis), on Test Days −6, −1, 5, 12, 19, 28 and 35. Individual animal flea counts can be performed approximately 48-hours post-infestation using the laboratory's comb counting method on Test Days −4, 1, 7, 14, 21, 30 and 37. The Day −4 pre-treatment live flea counts can be used to allocate animals to the five treatment groups. The Day 1, 7, 14, 21, 30 and 37 flea counts can be used to evaluate the knockdown (Day 1) and residual flea efficacy in each of the treated groups compared to the vehicle (negative) control group.

[2] = Tolerability of flavored spinosad tablet in cats (Example 3); type: in vivo, cat; details: beef flavored tablet 51.47 to 76.06 mg/kg single oral dose
Text: (§1) In total, twenty-two (22) cats can be acclimatized for the study and from these, 17 can be selected based on pre-treatment weight and flea retention counts to be randomized into either a treated or control group. Nine cats can be assigned to the control group and eight cats can be assigned to the treatment group based on flea retention counts from Day −5. Cats in the treated group can be dosed on Day 0 with the intended final formulation, a beef flavored tablet containing spinosad at a dose rate of 50-75 mg/kg spinosad/body weight, while the cats in the control group can be dosed with a vehicle control tablet.
(§2) Seventeen cats were randomized based on pre-treatment flea infestation counts into either a treated or control group. Eight cats were dosed on Day 0 with a beef flavored tablet containing spinosad with an overall dose range of 51.47 to 76.06 mg/kg spinosad body weight. The other nine cats were dosed with a vehicle control tablet.

[3] = Pharmacokinetics of spinosad API capsules and spinosad tablets after oral administration to cats (Example 2); details: in vivo
Procedure: The plasma concentrations and resulting pharmacokinetics of spinosad tablets when administered orally to adult cats in the fed or fasted state can be evaluated. Twenty four cats (12 male and 12 female) can be dosed with approximately 80 mg/kg spinosad, as either API in gelatin capsules or as spinosad formulated chewable tablets. Serial blood samples can be collected through 672 hours (28 days) after dose administration. […] Samples can be immediately mixed by inversion several times and stored on ice until centrifuged. The plasma can be collected, split into two approximately equal aliquots and stored frozen at approximately −70° C. until shipped for analysis, and/or analyzed by a validated LC/MS/MS assay.

[4] = Tolerability of oral spinosad in cats (Example 1); type: in vivo, cat; details: single oral dose 35-50 mg/kg in gelatin capsule
[5] = test system: adult cat fleas (Ctenocephalides felis); assay: Dose confirmation: efficacy of flavored spinosad tablet against fleas on experimentally infested cats (Example 4); type: in vivo; details: flavored tablet 50-75 mg/kg single oral dose, fed
Text: Confirmation of the efficacious dose of spinosad can be evaluated in cats experimentally infested with adult fleas (Ctenocephalides felis).
Twenty-four (24) cats that meet the inclusion/exclusion criteria and had the highest pre-treatment live flea (C. felis) counts can be included in a randomized complete block design with pre-treatment live flea counts used as a blocking factor. Each cat can be infested with approximately 100 unfed adult fleas (C. felis) on Test Day −9. Pre-treatment live flea counts can be conducted using the laboratory's comb counting method on Test Day −7. The Test Day −7 live flea counts can be used to allocate cats to one of two treatment groups. The two treatment groups of 12 cats per group can be orally dosed on Test Day 0. One group (5 male: 7 female) can receive vehicle control (0 mg/kg placebo tablets) and the second group (7 male: 5 female) can receive flavored spinosad tablets at a dose rate of 50-75 mg/kg body weight. Cats can consume canned cat food just prior to dosing and can be offered their daily maintenance diet after dosing. Each cat can be infested with approximately 100 unfed adult fleas (C. felis) on Test Days −1, 5, 12, 19, 28 and 35. Individual animal live flea counts can be performed on Test Days 1, 7, 14, 21, 30 and 37.

[6] = test system: adult cat fleas (Ctenocephalides felis); assay: Dose confirmation: efficacy of beef flavored spinosad tablet against fleas on experimentally infested cats (Example 3); type: in vivo; details: beef flavored tablet 50-75 mg/kg single oral dose
Procedure: The treatment effect (insecticidal efficacy) of a beef flavored spinosad tablet when administered orally at a dose of 50-75 mg/kg against fleas (Ctenocephalides felis) on experimentally infested cats can be evaluated at one day post-administration and for the post-treatment prevention effect (residual efficacy) on Days 7, 14, 21 and 28.
as §1
Each cat can be infested with approximately 100 fleas on Days −1, 7, 14, 21 and 28 and then combed and the fleas counted on Days 1, 9, 16, 23 and 30 respectively.
as §2

[7] = single oral dose 35 mg/kg in gelatin capsule, Day 7 post treatment
[8] = single oral dose 35 mg/kg in gelatin capsule, Day 14 post treatment
[9] = single oral dose 35 mg/kg in gelatin capsule, Day 21 post treatment
[10] = single oral dose 35 mg/kg in gelatin capsule, Day 37 post treatment
[11] = single oral dose 40 mg/kg in gelatin capsule, Day 7 post treatment
[12] = single oral dose 40 mg/kg in gelatin capsule, Day 14 post treatment
[13] = single oral dose 40 mg/kg in gelatin capsule, Day 21 post treatment
[14] = single oral dose 40 mg/kg in gelatin capsule, Day 30 post treatment
[15] = single oral dose 40 mg/kg in gelatin capsule, Day 37 post treatment
[16] = single oral dose 45 mg/kg in gelatin capsule, Day 7 post treatment
[17] = single oral dose 45 mg/kg in gelatin capsule, Day 14 post treatment
[18] = single oral dose 45 mg/kg in gelatin capsule, Day 21 post treatment
[19] = single oral dose 45 mg/kg in gelatin capsule, Day 37 post treatment
[20] = single oral dose 50 mg/kg in gelatin capsule, Day 7 post treatment
[21] = single oral dose 50 mg/kg in gelatin capsule, Day 14 post treatment
[22] = single oral dose 50 mg/kg in gelatin capsule, Day 21 post treatment
[23] = single oral dose 50 mg/kg in gelatin capsule, Day 30 post treatment
[24] = single oral dose 50 mg/kg in gelatin capsule, Day 37 post treatment

## spinosad
[1]; 50 mg/kg oral, up through Day 21
  fleas at each comb count: zero
[1]; all four spinosad groups (35, 40, 45, 50 mg/kg oral), up to and including Day 21 post-treatment
  post-treatment residual flea efficacy (geometric means): > 90%
[1]; single oral dose 35 mg/kg in gelatin capsule, Day 1 post treatment
  Geometric Mean Counts of Adult C. felis: (0.0)
[1]; single oral dose 35 mg/kg in gelatin capsule, Day 1 post treatment, 35 mg/kg
  Geometric Mean Percent Reduction of Adult C. felis Compared to Untreated Control Group: 100%
[1]; [7]
  Geometric Mean Counts of Adult C. felis: (0.0)
  Geometric Mean Percent Reduction of Adult C. felis Compared to Untreated Control Group: 100.00%
[1]; [8]
  Geometric Mean Counts of Adult C. felis: (0.2)
  Geometric Mean Percent Reduction of Adult C. felis Compared to Untreated Control Group: 99.74%
[1]; [9]
  Geometric Mean Counts of Adult C. felis: (5.4)
  Geometric Mean Percent Reduction of Adult C. felis Compared to Untreated Control Group: 92.94%
[1]; single oral dose 35 mg/kg in gelatin capsule, Day 30 post treatment
  Geometric Mean Counts of Adult C. felis: (11.8)
[1]; [10]
  Geometric Mean Counts of Adult C. felis: (32.4)
  Geometric Mean Percent Reduction of Adult C. felis Compared to Untreated Control Group: 52.20%
[1]; single oral dose 40 mg/kg in gelatin capsule, Day 1 post treatment
  Geometric Mean Counts of Adult C. felis: (0.0)
[1]; single oral dose 40 mg/kg in gelatin capsule, Day 1 post treatment, 40 mg/kg
  Geometric Mean Percent Reduction of Adult C. felis Compared to Untreated Control Group: 100%
[1]; [11]
  Geometric Mean Counts of Adult C. felis: (0.0)
  Geometric Mean Percent Reduction of Adult C. felis Compared to Untreated Control Group: 100.00%
[1]; [12]
  Geometric Mean Counts of Adult C. felis: (0.0)
  Geometric Mean Percent Reduction of Adult C. felis Compared to Untreated Control Group: 100.00%
[1]; [13]
  Geometric Mean Counts of Adult C. felis: (1.0)
  Geometric Mean Percent Reduction of Adult C. felis Compared to Untreated Control Group: 98.74%
[1]; [14]
  Geometric Mean Counts of Adult C. felis: (5.2)
  Geometric Mean Percent Reduction of Adult C. felis Compared to Untreated Control Group: 91.59%
[1]; [15]
  Geometric Mean Counts of Adult C. felis: (18.9)
  Geometric Mean Percent Reduction of Adult C. felis Compared to Untreated Control Group: 72.18%
[1]; single oral dose 45 mg/kg in gelatin capsule, Day 1 post treatment
  Geometric Mean Counts of Adult C. felis: (0.0)
[1]; single oral dose 45 mg/kg in gelatin capsule, Day 1 post treatment, 45 mg/kg
  Geometric Mean Percent Reduction of Adult C. felis Compared to Untreated Control Group: 100%
[1]; [16]
  Geometric Mean Counts of Adult C. felis: (0.4)
  Geometric Mean Percent Reduction of Adult C. felis Compared to Untreated Control Group: 99.50%
[1]; [17]
  Geometric Mean Counts of Adult C. felis: (2.0)
  Geometric Mean Percent Reduction of Adult C. felis Compared to Untreated Control Group: 97.22%
[1]; [18]
  Geometric Mean Counts of Adult C. felis: (4.6)
  Geometric Mean Percent Reduction of Adult C. felis Compared to Untreated Control Group: 93.98%
[1]; single oral dose 45 mg/kg in gelatin capsule, Day 30 post treatment
  Geometric Mean Counts of Adult C. felis: (11.9)
[1]; [19]
  Geometric Mean Counts of Adult C. felis: (35.1)
  Geometric Mean Percent Reduction of Adult C. felis Compared to Untreated Control Group: 48.29%
[1]; single oral dose 50 mg/kg in gelatin capsule, Day 1 post treatment
  Geometric Mean Counts of Adult C. felis: (0.0)
[1]; single oral dose 50 mg/kg in gelatin capsule, Day 1 post treatment, 50 mg/kg
  Geometric Mean Percent Reduction of Adult C. felis Compared to Untreated Control Group: 100%
[1]; [20]
  Geometric Mean Counts of Adult C. felis: (0.0)
  Geometric Mean Percent Reduction of Adult C. felis Compared to Untreated Control Group: 100.00%
[1]; [21]
  Geometric Mean Counts of Adult C. felis: (0.0)
  Geometric Mean Percent Reduction of Adult C. felis Compared to Untreated Control Group: 100.00%
[1]; [22]
  Geometric Mean Counts of Adult C. felis: (0.0)
  Geometric Mean Percent Reduction of Adult C. felis Compared to Untreated Control Group: 100.00%
[1]; [23]
  Geometric Mean Counts of Adult C. felis: (1.6)
  Geometric Mean Percent Reduction of Adult C. felis Compared to Untreated Control Group: 97.33%
[1]; [24]
  Geometric Mean Counts of Adult C. felis: (8.5)
  Geometric Mean Percent Reduction of Adult C. felis Compared to Untreated Control Group: 87.50%
[2]
  tolerability: adequately tolerated
[3]
  AUC0-∞ in fed animals relative to fasted animals: 5-10 times
  Cmax in fed animals relative to fasted animals: 4-7 times
[4]
  tolerability: well tolerated
[5]; Day 1
  knockdown efficacy based on geometric means: 100%
[5]; Day 7
  residual efficacy based on geometric means: 99.78%
[5]; Day 14
  residual efficacy based on geometric means: 99.57%
[5]; Day 21
  residual efficacy based on geometric means: 95.83%
[5]; Day 30
  residual efficacy based on geometric means: 90.77%
[5]; Day 37
  residual efficacy based on geometric means: 90.36%
[6]; Day 1 post treatment
  Geometric Mean Percent Reduction of Adult C. felis Compared to Untreated Control Group: 100.0%
[6]; Day 7 (day of infestation, counted Day 9)
  Geometric Mean Percent Reduction of Adult C. felis Compared to Untreated Control Group: 100.0%
[6]; Day 14 (day of infestation, counted Day 16)
  Geometric Mean Percent Reduction of Adult C. felis Compared to Untreated Control Group: 99.69%
[6]; Day 21 (day of infestation, counted Day 23)
  Geometric Mean Percent Reduction of Adult C. felis Compared to Untreated Control Group: 99.45%
[6]; Day 28 (day of infestation, counted Day 30)
  Geometric Mean Percent Reduction of Adult C. felis Compared to Untreated Control Group: 98.05%
